The structures appear in SMILES notation.

This assay relates to isolated rat aorta. Kind of assay: Test A: activity against contractions induced by low K+ concentrations in the isolated rat aorta. Particulars: concentration reducing the 20mM K⁺-induced contraction by 90%; rat thoracic aorta strips denuded of endothelium, Krebs solution, cumulative concentrations; read-out: Activity Test A EC₉₀. The protocol: The test methods used were adapted from those described by Winslow et al [Eur.J.Pharmacol., 131, 219-228 (1986)] and Karaki [J.Pharmacol. Methods, 18, 1-21 (1987)] for differentiating vaso-relaxant activity. Test A : Activity against contractions induced by low K⁺ concentrations in the isolated rat aorta Thoracic aorta was removed from rats and transverse strips, denuded of endothelium, were suspended in a bath containing Krebs solution. The tension was recorded and a contraction induced by addition of 20mM K⁺ (potassium ion) to the bathing solution. The test compound was added to the bath as a solution in increasing cumulative concentration. The concentration in the bathing solution of the test compound which reduced the K⁺-induced contraction by 90% was determined and expressed in µM as the effective concentration (EC₉₀), given in Table I. Table I
On to `CNC(=S)[C@]1(c2cccnc2)CCCC[C@H]1N[C@H](C)c1cccc2ccccc12` [BE, (2R,1S)-2-[(R)-1-(1-naphthyl)ethylamino] 1-(3-pyridyl)cyclohexane-N-methylcarbothioamide], for which the EC90 came to 3 nM.
`CNC(=S)[C@]1(c2cccnc2)CCCC[C@H]1NOC` (racemic) [Compound AB, (±)-trans-2-methoxyamino-N-methyl-1-(3-pyridyl)cyclohexanecarbothioamide]: the EC90 was found to be 300 nM.
Take `CNC(=S)[C@]1(c2cccnc2)CCCC[C@H]1N[C@H](C)c1ccccc1` [BD, (2R,1S)-2-[(R)-1-phenylethylamino]-1-(3-pyridyl)cyclohexane-N-methylcarbothioamide]: the EC90 came to 0.03 nM.
For `CNC(=S)[C@]1(c2cccnc2)CCCC[C@H]1NOCc1ccccc1` (racemic) [AA, (±)-trans-2-benzyloxyamino-N-methyl-1-(3-pyridyl)cyclohexanecarbothioamide], the EC90 is 3 nM.

Values taken from patent EP0403398A1, “New thioformamide derivatives” (RHONE-POULENC SANTE, priority 1989, dated 1990).
